Data on 2 compounds can be found in PubChem BioAssay AID2630 (Broad Institute, 2010).

pEC50: −log10 of the molar value. Where “and” joins values, the source holds several entries; their conditions need not be identical. Identical values can stand only once. Records with an inconclusive call do not appear.

This experiment concerns T. cruzi beta-gal in NIH3T3, GalScreen luminescence, 90 h. Nature of the experiment: inhibitors of Trypanosoma cruzi host-cell infection, confirmation, beta-gal luminescence, NIH3T3 host cells (AID 2630).

Take `CN(Cc1ccccc1)C(=O)C1CCCN(Cc2cccc(Cl)c2)C1` (configuration not stated): the pEC50 was 6.64 and 7.46.

In the case of `CC(C)Oc1cccc(C(=O)C2CCCN(Cc3cnn(C(C)C)c3)C2)c1` (configuration not stated), the pEC50 was 7.17 and 7.78.

The pEC50 is the negative decadic logarithm of the EC50, by convention in mol/L.
